Laboratory results taken from ChEMBL document CHEMBL1127341, “Synthesis and biological evaluation of 5-[[3,5-bis(1,1-dimethylethyl)- 4-hydroxyphenyl]methylene]oxazoles, -thiazoles, and -imidazoles: novel dual 5-lipoxygenase and cyclooxygenase inhibitors with antiinflammatory activity” (J Med Chem, 1994).
Activity calls are given as the source filed them. The calls are words filed in the database; no cut-off is given here.

What was measured:
Cyclooxygenase = molecular target: T1, Cyclooxygenase (Rattus norvegicus, UniProt P35355+Q63921); settings: rbl-1
T1 sequence (P35355 whole entry): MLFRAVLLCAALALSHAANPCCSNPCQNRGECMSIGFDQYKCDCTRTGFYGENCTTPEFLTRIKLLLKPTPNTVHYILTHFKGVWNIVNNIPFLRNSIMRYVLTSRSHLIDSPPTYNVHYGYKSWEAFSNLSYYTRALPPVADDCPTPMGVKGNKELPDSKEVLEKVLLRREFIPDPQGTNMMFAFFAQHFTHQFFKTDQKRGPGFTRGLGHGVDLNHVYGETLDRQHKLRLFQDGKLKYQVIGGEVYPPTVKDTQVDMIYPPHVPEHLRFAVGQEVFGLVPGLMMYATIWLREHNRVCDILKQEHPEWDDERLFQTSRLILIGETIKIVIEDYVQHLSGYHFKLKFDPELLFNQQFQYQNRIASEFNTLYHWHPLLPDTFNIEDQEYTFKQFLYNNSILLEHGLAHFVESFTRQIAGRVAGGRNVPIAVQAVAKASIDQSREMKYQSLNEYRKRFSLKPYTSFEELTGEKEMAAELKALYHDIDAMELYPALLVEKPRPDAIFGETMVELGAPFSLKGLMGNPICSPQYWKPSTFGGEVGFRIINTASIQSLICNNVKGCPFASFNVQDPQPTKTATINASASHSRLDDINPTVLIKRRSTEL
T1 sequence (Q63921 whole entry): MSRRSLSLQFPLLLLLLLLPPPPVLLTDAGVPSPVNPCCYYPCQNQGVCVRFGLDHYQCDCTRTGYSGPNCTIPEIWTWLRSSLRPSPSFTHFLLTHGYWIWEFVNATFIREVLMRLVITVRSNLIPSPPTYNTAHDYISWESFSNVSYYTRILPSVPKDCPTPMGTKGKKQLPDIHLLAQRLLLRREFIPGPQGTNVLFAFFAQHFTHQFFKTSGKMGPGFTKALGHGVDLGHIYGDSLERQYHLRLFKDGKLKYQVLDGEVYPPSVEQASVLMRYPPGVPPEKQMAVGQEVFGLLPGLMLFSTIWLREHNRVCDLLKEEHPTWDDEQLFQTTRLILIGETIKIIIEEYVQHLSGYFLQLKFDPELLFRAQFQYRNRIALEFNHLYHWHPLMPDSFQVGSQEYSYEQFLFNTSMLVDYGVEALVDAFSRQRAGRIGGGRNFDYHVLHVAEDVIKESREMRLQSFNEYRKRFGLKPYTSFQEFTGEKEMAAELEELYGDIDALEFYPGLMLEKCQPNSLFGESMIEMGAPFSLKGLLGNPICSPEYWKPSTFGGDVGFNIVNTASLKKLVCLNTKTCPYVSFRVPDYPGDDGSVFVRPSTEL
Description: Inhibition of prostaglandin G/H synthase in intact rat basophilic leukemia cells stimulated with the calcium ionophore A-23187

Rattus norvegicus [1] = assay: 40% inhibition of induced edema in the rat mycobacterium foot-pad edema test; format: functional
Rattus norvegicus [2] = assay: Inhibition of rat carrageenan induced foot-pad edema at a dose of 30 mg/kg on peroral administration; settings: po, read-out: Inhibition
[3] = molecular target: T2, Polyunsaturated fatty acid 5-lipoxygenase (Rattus norvegicus, UniProt P12527)
T2 sequence (P12527 whole entry): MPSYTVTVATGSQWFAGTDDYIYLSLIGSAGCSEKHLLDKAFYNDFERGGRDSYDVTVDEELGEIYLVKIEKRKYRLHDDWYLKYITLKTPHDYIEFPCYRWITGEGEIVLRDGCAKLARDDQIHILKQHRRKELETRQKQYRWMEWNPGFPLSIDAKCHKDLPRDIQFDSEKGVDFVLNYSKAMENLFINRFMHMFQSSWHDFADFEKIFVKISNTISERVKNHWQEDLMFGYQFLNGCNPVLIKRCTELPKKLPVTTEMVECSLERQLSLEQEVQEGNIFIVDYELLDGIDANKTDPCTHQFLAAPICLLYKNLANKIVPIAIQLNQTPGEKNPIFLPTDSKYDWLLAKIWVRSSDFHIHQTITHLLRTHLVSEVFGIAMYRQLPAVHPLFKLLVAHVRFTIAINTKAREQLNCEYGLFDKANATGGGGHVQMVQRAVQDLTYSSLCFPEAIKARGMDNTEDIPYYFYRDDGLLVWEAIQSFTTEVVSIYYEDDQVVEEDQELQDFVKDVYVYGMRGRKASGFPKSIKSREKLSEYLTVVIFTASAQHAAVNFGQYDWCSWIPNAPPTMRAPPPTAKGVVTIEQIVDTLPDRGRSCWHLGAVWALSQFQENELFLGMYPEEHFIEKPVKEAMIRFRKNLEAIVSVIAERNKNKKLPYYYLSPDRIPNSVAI

Rattus norvegicus [4] = assay: Inhibition of rat carrageenan induced foot-pad edema at a dose of 10 mg/kg on peroral administration; settings: po, read-out: Inhibition
[5] = molecular target: T2, Polyunsaturated fatty acid 5-lipoxygenase; assay: Inhibitory activity against 5-lipoxygenase in intact rat basophilic leukemia cells stimulated with the calcium ionophore A-23187; N=Inactive; format: cell-based; settings: rbl-1
[6] = molecular target: T2, Polyunsaturated fatty acid 5-lipoxygenase; assay: Inhibitory activity against 5-lipoxygenase in intact rat basophilic leukemia cells stimulated with the calcium ionophore A-23187; Inactive(N)= <50% inhibition at 10 uM; format: cell-based; settings: rbl-1
Rattus norvegicus [7] = assay: 40% inhibition of induced edema in the rat mycobacterium foot-pad edema test; N=Inactive; format: functional, organism-based
Rattus norvegicus [8] = assay: Inhibition of rat carrageenan induced foot-pad edema at a dose of 30 mg/kg on peroral administration; N=Inactive; format: functional, organism-based; parameters: dose 30 mg/kg
[9] = molecular target: T3, Polyunsaturated fatty acid 5-lipoxygenase (Rattus norvegicus) (UniProt P12527); assay: Inhibitory activity at 10 uM against 5-lipoxygenase in intact rat basophilic leukemia cells stimulated with the calcium ionophore A-23187; format: cell-based; settings: RBL-1
T3 sequence (whole entry): T2 sequence (P12527 whole entry)

Rattus norvegicus [10] = assay: Inhibition of rat carrageenan induced foot-pad edema at a dose of 30 mg/kg on peroral administration; Inactive(N)= <25% inhibition at a dose of 30 mg/kg po; format: functional, organism-based
Rattus norvegicus [11] = assay: 40% inhibition of induced edema in the rat mycobacterium foot-pad edema test; Inactive(N)= <30% inhibition at a dose of 10 mg/kg po; format: functional, organism-based; parameters: dose 10 mg/kg
[12] = molecular target: T3, Polyunsaturated fatty acid 5-lipoxygenase (Rattus norvegicus); assay: Inhibitory activity against 5-lipoxygenase in intact rat basophilic leukemia cells stimulated with the calcium ionophore A-23187; format: cell-based; settings: RBL-1; concentration not given here
[13] = molecular target: T3, Polyunsaturated fatty acid 5-lipoxygenase (Rattus norvegicus); assay: Inhibitory activity at 1 uM against 5-lipoxygenase in intact rat basophilic leukemia cells stimulated with the calcium ionophore A-23187; format: cell-based; settings: RBL-1
[14] = molecular target: T4, Cyclooxygenase (Rattus norvegicus) (UniProt P35355+Q63921); assay: Inhibitory activity at 10 uM against Prostaglandin G/H synthase in intact rat basophilic leukemia cells stimulated with the calcium ionophore A-23187; format: cell-based; settings: RBL-1
[15] = molecular target: T4, Cyclooxygenase (Rattus norvegicus); assay: Inhibitory activity against Prostaglandin G/H synthase in intact rat basophilic leukemia cells stimulated with the calcium ionophore A-23187 at 10 uM; format: cell-based; settings: RBL-1

SMILES | IC50 (Cyclooxygenase) | IC50 [3] | inhibition in vivo at 30 mg/kg (Rattus norvegicus [2]) | inhibition in vivo at 10 mg/kg (Rattus norvegicus [4]) | further results
O=C1NC(=O)/C(=C/c2ccc(O)cc2)S1 |  |  |  |  | IC50 [5]: Not Active
CC(C)(C)c1cc(/C=C2\SC(=N)NC2=O)cc(C(C)(C)C)c1O.CS(=O)(=O)O [DARBUFELONE MESYLATE] | 390 nM | 770 nM | 61% | 52% | ID40 (Rattus norvegicus [1]): 0.6 mg/kg
CONC1=NC(=O)/C(=C/c2cc(C(C)(C)C)c(O)c(C(C)(C)C)c2)S1 |  |  |  |  | IC50 [5]: Not Active
CNC1=NC(=O)/C(=C/c2cc(C(C)(C)C)c(O)c(C(C)(C)C)c2)S1 |  |  |  |  | IC50 [6]: Inactive
CC(C)(C)c1cc(/C=C2\SC(NC#N)=NC2=O)cc(C(C)(C)C)c1O | 160 nM | 630 nM | 49% | 29% | ID40 (Rattus norvegicus [7]): inactive
CN1C(NC#N)=NC(=O)/C1=C/c1cc(C(C)(C)C)c(O)c(C(C)(C)C)c1 | 3500 nM | 700 nM |  |  | inhibition (Rattus norvegicus [8]): inactive
CN(O)C1=NC(=O)/C(=C/c2cc(C(C)(C)C)c(O)c(C(C)(C)C)c2)S1 [listing 1 of 2 here] |  |  |  |  | inhibition (Rattus norvegicus [8]): inactive
CN(C)CCNC1=NC(=O)/C(=C/c2cc(C(C)(C)C)c(O)c(C(C)(C)C)c2)S1 |  |  |  |  | inhibition [9]: 79%
CC(C)(C)c1cc(/C=C2\OC(NC#N)=NC2=O)cc(C(C)(C)C)c1O | 1100 nM | 2600 nM |  |  | inhibition (Rattus norvegicus [8]): inactive
CC(C)(C)c1cc(/C=C2\SC(NCCCC(=O)O)=NC2=O)cc(C(C)(C)C)c1O |  |  |  |  | inhibition [9]: 53%
CC(C)(C)c1cc(/C=C2\SC(N=C(N)N)=NC2=O)cc(C(C)(C)C)c1O | 83 nM | 910 nM | 40% | 34% | ID40 (Rattus norvegicus [1]): 2.2 mg/kg
C/C(=C1/SC(N=C(N)N)=NC1=O)c1cc(C(C)(C)C)c(O)c(C(C)(C)C)c1 | 1900 nM | 1600 nM |  |  | inhibition (Rattus norvegicus [8]): inactive
CN(O)C1=NC(=O)/C(=C/c2cc(C(C)(C)C)c(O)c(C(C)(C)C)c2)S1 [listing 2 of 2 here] | 10000 nM | 7300 nM |  |  | 
CN(O)C1=NC(=O)/C(=C/c2cc(C(C)(C)C)c(O)c(C(C)(C)C)c2)S1.Cl | 330 nM | 1700 nM |  |  | ID40 (Rattus norvegicus [1]): 6.2 mg/kg
CC(C)(C)c1cc(/C=C2\CCOC2=O)cc(C(C)(C)C)c1O |  |  | 28% | 17% | ID40 (Rattus norvegicus [1]): 3.7 mg/kg
CC(C)(C)c1cc(/C=C2\OC(N=C(N)N)=NC2=O)cc(C(C)(C)C)c1O.CS(=O)(=O)O | 340 nM | 1200 nM | 48% | 33% | ID40 (Rattus norvegicus [1]): 5.7 mg/kg
O=C1NC(=O)/C(=C/c2cc(-c3ccccc3)c(O)c(-c3ccccc3)c2)S1 | 9600 nM | 160 nM | 41% | 11% | ID40 (Rattus norvegicus [11]): inactive
CN(C)C1=NC(=O)/C(=C/c2cc(C(C)(C)C)c(O)c(C(C)(C)C)c2)S1 |  |  |  |  | inhibition [12]: 65%
CN(C)C(=N)NC1=NC(=O)/C(=C/c2cc(C(C)(C)C)c(O)c(C(C)(C)C)c2)S1 |  |  |  |  | inhibition [13]: 100%
C/C(=C1/SC(=S)NC1=O)c1cc(C(C)(C)C)c(O)c(C(C)(C)C)c1 | 4500 nM | 2300 nM |  |  | inhibition (Rattus norvegicus [10]): inactive
CC(C)c1cc(/C=C2\SC(=O)NC2=O)cc(C(C)C)c1O | 820 nM | 220 nM |  |  | ID40 (Rattus norvegicus [7]): inactive
CC(C)(C)c1cc(/C=C2\SC(=S)NC2=O)cc(C(C)(C)C)c1O | 12 nM | 380 nM | 36% | 32% | 
O=C1NC(=O)/C(=C/c2cc(I)c(O)c(I)c2)S1 |  |  |  |  | IC50 [6]: Inactive; inhibition [14]: 60%
CON1CC/C(=C\c2cc(C(C)(C)C)c(O)c(C(C)(C)C)c2)C1=O [E-5110] |  |  |  |  | ID40 (Rattus norvegicus [1]): 1.9 mg/kg
CN1C(NC(=N)N)=NC(=O)/C1=C/c1cc(C(C)(C)C)c(O)c(C(C)(C)C)c1 | 2100 nM | 1300 nM |  |  | inhibition (Rattus norvegicus [8]): inactive
C/C(=C1/SC(NC#N)=NC1=O)c1cc(C(C)(C)C)c(O)c(C(C)(C)C)c1 | 5100 nM | 1200 nM |  |  | inhibition (Rattus norvegicus [8]): inactive

Continued, in another order:

IC50 (Cyclooxygenase) | IC50 [3] | SMILES | inhibition in vivo at 30 mg/kg (Rattus norvegicus [2]) | inhibition in vivo at 10 mg/kg (Rattus norvegicus [4]) | further results
1700 nM | 840 nM | CC(C)(C)c1cc(/C=C2\OC(=S)NC2=O)cc(C(C)(C)C)c1O | 40% | 32% | ID40 (Rattus norvegicus [1]): 12.4 mg/kg
600 nM | 650 nM | CSC1=NC(=O)/C(=C/c2cc(C(C)(C)C)c(O)c(C(C)(C)C)c2)S1 | 47% | 36% | ID40 (Rattus norvegicus [7]): inactive
4600 nM | 3300 nM | CC(C)(C)c1cc(/C=C2\SC(=O)NC2=O)cc(C(C)(C)C)c1 |  |  | inhibition (Rattus norvegicus [8]): inactive
790 nM | 170 nM | CN1C(=S)NC(=O)/C1=C/c1cc(C(C)(C)C)c(O)c(C(C)(C)C)c1 |  |  | inhibition (Rattus norvegicus [8]): inactive
4600 nM | 780 nM | CN1C(=O)NC(=O)/C1=C/c1cc(C(C)(C)C)c(O)c(C(C)(C)C)c1 |  |  | inhibition (Rattus norvegicus [10]): inactive
650 nM | 2800 nM | CC(C)(C)c1cc(/C=C2\OC(=O)NC2=O)cc(C(C)(C)C)c1O | 51% | 35% | ID40 (Rattus norvegicus [1]): 3.7 mg/kg
800 nM | 3700 nM | CC(C)(C)c1cc(/C=C2\SC(NO)=NC2=O)cc(C(C)(C)C)c1O |  |  | inhibition (Rattus norvegicus [8]): inactive
2400 nM | 1700 nM | CC(C)(C)c1cc(/C=C2\CC(=S)NC2=O)cc(C(C)(C)C)c1O | 39% | 19% | ID40 (Rattus norvegicus [11]): inactive
350 nM |  | CC(C)(C)c1cc(/C=C2\SC(=O)NC2=O)cc(C(C)(C)C)c1O | 59% | 54% | ID40 (Rattus norvegicus [1]): 2 mg/kg
 | 480 nM | C/C(=C1/SC(=O)NC1=O)c1cc(C(C)(C)C)c(O)c(C(C)(C)C)c1 |  |  | inhibition [15]: 52%
